Laboratory results: PubChem BioAssay AID1963966 (Molecular Pharmacology Branch, DTP, NCI, 2024)

Test system: 935938-334-R-J1-PDC spheroids with HUVEC/MSC, viability
Assay: Anticancer human tumor 935938-334-R-J1-PDC patient-derived small intestine adenocarcinoma cell line growth inhibition [PI3K]
Conditions: for IC50: curve of first compound; for viability, T/C: stronger effect = lower value
From the text: Combinatorial screen of targeted agents with the PI3K inhibitors inavolisib, alpelisib, duvelisib, and copanlisib in multi-cell type tumor spheroids
A high-throughput screen of multi-cell type tumor spheroids was designed to identify active combinations of targeted small molecules and PI3K pathway inhibitors. Complex spheroids include a stromal component modeled by human endothelial cells (HUVEC) and fibroblasts modeled by human mesenchymal stem cells (MSCs). The concentration ranges selected for each drug and investigational agent were based upon clinically achievable concentrations if the clinical Cmax of the agent was known.
Compounds. The drugs and investigational agents: inavolisib (NSC800729), alpelisib (NSC765974), duvelisib (NSC772469), copanlisib (NSC816437), ipatasertib (NSC767898), afuresertib (NSC778305), talazoparib (NSC767125), sapanisertib (NSC764658), selumetinib (NSC741078), tovorafenib (DAY101, NSC766906), vemurafenib (NSC761431), ravoxertinib (NSC781343), sotorasib (NSC818433), MRTX1133 (NSC 836407), abemaciclib (NSC 768073), palbociclib (NSC758247), venetoclax (NSC 766270), SY5609 (NSC837396), enzalutamide (NSC755605), and darolutamide (NSC825331), were obtained from the National Cancer Institute (NCI) Developmental Therapeutics Program Chemical Repository. The FDA-approved anticancer drug set is available from the NCI Developmental Therapeutics Program. […] The stock solutions were prepared in dimethyl sulfoxide (DMSO, Sigma-Aldrich, St. Louis, MO, cat. D2650) at 800-fold the tested concentration and stored at -70 degrees C prior to their use. All drugs and investigational agents were tested over a range starting from a high concentration at or near the clinical Cmax and decreasing in half-log increments. If the clinical Cmax for an agent had not been determined, the highest concentration tested was 10 microM.
Cell Culture. All cells were maintained in an incubator at 37 degrees C and 5% CO2 with 95% humidity. The PDC lines were cultured according to standard operating procedures established by the NCI PDMR (https://pdmr.cancer.gov/sops/default.htm). All PDCs were thawed and cultured in Matrigel-coated flasks prepared with a working solution of 1X Ham's F-12 nutrient mix, without supplementation (Invitrogen, Waltham, MA, cat. 11765054), 100 U/mL penicillin-streptomycin (Invitrogen, cat. 15140122), and 2.5% Matrigel (Corning Inc., Corning, NY, cat. 354248) for the first three passages. The 354836-022-R-J1-PDC, 475296-252-R-J1-PDC, and 997726-040-R-J2-PDC lines were cultured in 6A media, which includes advanced DMEM/F-12 (Thermo Fisher Scientific, cat. 12634028), 10 mM HEPES (Thermo Fisher Scientific, cat. 15630080), 1X GlutaMAX supplement (Thermo Fisher Scientific, cat. 35050061), 0.1 mg/mL primocin (InvivoGen, San Diego, CA, cat. ant-pm-2), 10% defined fetal bovine serum, heat inactivated (HyClone Laboratories Inc., Logan, UT, cat. SH30070.03HI), 50% L-WRN conditioned media (ATCC, cat. CRL-3276), 1.25 mM N-Acetyl-L-cysteine (Sigma-Aldrich, cat. A9165), 10 mM nicotinamide (Sigma-Aldrich, cat. N0636), 1X B-27 supplement (Thermo Fisher Scientific, cat. 17504044), 1X N-2 supplement (Thermo Fisher Scientific, cat. 17502048), and 10 microM Y-27632 dihydrochloride (Tocris Bioscience, Bristol, United Kingdom, cat. 1254). The 624824-186-R-J2-PDC line was cultured in 6C/Colon 1B media, which includes all 6A media components plus 50 ng/mL human EGF recombinant protein (Thermo Fisher Scientific, cat. PHG0311). […]
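Also: compound exposure lasted seven days before viability was read.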
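For viability, T/C in this document: percent of vehicle DMSO treated spheroid viability so 100% = untreated.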

## CNC(=O)c1ccc(N2C(=S)N(c3ccc(C#N)c(C(F)(F)F)c3)C(=O)C2(C)C)cc1F + CC(Nc1ccc2c(c1)OCCn1cc(N3C(=O)OCC3C(F)F)nc1-2)C(N)=O
Second compound 0.00316 µM
  IC50: > 10 µM
Second compound 0.01 µM
  IC50: > 10 µM
Second compound 0.0316 µM
  IC50: > 10 µM
Second compound 0.1 µM
  IC50: > 10 µM
Second compound 0.316 µM
  IC50: > 10 µM
Second compound 1 µM
  IC50: 3.16 µM
Second compound 0.00316 µM, first compound 0.0316 µM
  viability, T/C: 99.4%
Second compound 0.00316 µM, first compound 0.1 µM
  viability, T/C: 108%
Second compound 0.00316 µM, first compound 0.316 µM
  viability, T/C: 99.5%
Second compound 0.00316 µM, first compound 1 µM
  viability, T/C: 102%
Second compound 0.00316 µM, first compound 3.16 µM
  viability, T/C: 97.1%
Second compound 0.00316 µM, first compound 10 µM
  viability, T/C: 86%
Second compound 0.01 µM, first compound 0.0316 µM
  viability, T/C: 99.9%
Second compound 0.01 µM, first compound 0.1 µM
  viability, T/C: 89.9%
Second compound 0.01 µM, first compound 0.316 µM
  viability, T/C: 108%
Second compound 0.01 µM, first compound 1 µM
  viability, T/C: 78.3%
Second compound 0.01 µM, first compound 3.16 µM
  viability, T/C: 102%
Second compound 0.01 µM, first compound 10 µM
  viability, T/C: 97.6%
Second compound 0.0316 µM, first compound 0.0316 µM
  viability, T/C: 102%
Second compound 0.0316 µM, first compound 0.1 µM
  viability, T/C: 95.6%
Second compound 0.0316 µM, first compound 0.316 µM
  viability, T/C: 90.7%
Second compound 0.0316 µM, first compound 1 µM
  viability, T/C: 110%
Second compound 0.0316 µM, first compound 3.16 µM
  viability, T/C: 97.8%
Second compound 0.0316 µM, first compound 10 µM
  viability, T/C: 86.3%
Second compound 0.1 µM, first compound 0.0316 µM
  viability, T/C: 80.4%
Second compound 0.1 µM, first compound 0.1 µM
  viability, T/C: 99.4%
Second compound 0.1 µM, first compound 0.316 µM
  viability, T/C: 90.3%
Second compound 0.1 µM, first compound 1 µM
  viability, T/C: 93.8%
Second compound 0.1 µM, first compound 3.16 µM
  viability, T/C: 79.2%
Second compound 0.1 µM, first compound 10 µM
  viability, T/C: 105%
Second compound 0.316 µM, first compound 0.0316 µM
  viability, T/C: 86.9%
Second compound 0.316 µM, first compound 0.1 µM
  viability, T/C: 72.7%
Second compound 0.316 µM, first compound 0.316 µM
  viability, T/C: 73.7%
Second compound 0.316 µM, first compound 1 µM
  viability, T/C: 83.1%
Second compound 0.316 µM, first compound 3.16 µM
  viability, T/C: 82.4%
Second compound 0.316 µM, first compound 10 µM
  viability, T/C: 64.7%
Second compound 1 µM, first compound 0.0316 µM
  viability, T/C: 61.6%
Second compound 1 µM, first compound 0.1 µM
  viability, T/C: 66.5%
Second compound 1 µM, first compound 0.316 µM
  viability, T/C: 72.7%
Second compound 1 µM, first compound 1 µM
  viability, T/C: 43.7%
Second compound 1 µM, first compound 3.16 µM
  viability, T/C: 61.5%
Second compound 1 µM, first compound 10 µM
  viability, T/C: 53.3%

## Cn1cnc2c(F)c(Nc3ccc(Br)cc3Cl)c(C(=O)NOCCO)cc21 + CC(Nc1ccc2c(c1)OCCn1cc(N3C(=O)OCC3C(F)F)nc1-2)C(N)=O
Second compound 0.00316 µM
  IC50: 0.0496 µM
Second compound 0.01 µM
  IC50: 0.0299 µM
Second compound 0.0316 µM
  IC50: 0.0654 µM
Second compound 0.1 µM
  IC50: 0.0274 µM
Second compound 0.316 µM
  IC50: 0.0183 µM
Second compound 1 µM
  IC50: < 0.00949 µM
Second compound 0.00316 µM, first compound 0.00949 µM
  viability, T/C: 86.3%
Second compound 0.00316 µM, first compound 0.03 µM
  viability, T/C: 57.2%
Second compound 0.00316 µM, first compound 0.0949 µM
  viability, T/C: 39.2%
Second compound 0.00316 µM, first compound 0.3 µM
  viability, T/C: 30.1%
Second compound 0.00316 µM, first compound 0.949 µM
  viability, T/C: 20.9%
Second compound 0.00316 µM, first compound 3 µM
  viability, T/C: 16.8%
Second compound 0.01 µM, first compound 0.00949 µM
  viability, T/C: 71.2%
Second compound 0.01 µM, first compound 0.03 µM
  viability, T/C: 50.9%
Second compound 0.01 µM, first compound 0.0949 µM
  viability, T/C: 33.8%
Second compound 0.01 µM, first compound 0.3 µM
  viability, T/C: 26.5%
Second compound 0.01 µM, first compound 0.949 µM
  viability, T/C: 26.5%
Second compound 0.01 µM, first compound 3 µM
  viability, T/C: 17.9%
Second compound 0.0316 µM, first compound 0.00949 µM
  viability, T/C: 79.1%
Second compound 0.0316 µM, first compound 0.03 µM
  viability, T/C: 65.3%
Second compound 0.0316 µM, first compound 0.0949 µM
  viability, T/C: 38.8%
Second compound 0.0316 µM, first compound 0.3 µM
  viability, T/C: 34.3%
Second compound 0.0316 µM, first compound 0.949 µM
  viability, T/C: 23.8%
Second compound 0.0316 µM, first compound 3 µM
  viability, T/C: 15.8%
Second compound 0.1 µM, first compound 0.00949 µM
  viability, T/C: 58%
Second compound 0.1 µM, first compound 0.03 µM
  viability, T/C: 46.4%
Second compound 0.1 µM, first compound 0.0949 µM
  viability, T/C: 39.7%
Second compound 0.1 µM, first compound 0.3 µM
  viability, T/C: 23.1%
Second compound 0.1 µM, first compound 0.949 µM
  viability, T/C: 16.8%
Second compound 0.1 µM, first compound 3 µM
  viability, T/C: 18.3%
Second compound 0.316 µM, first compound 0.00949 µM
  viability, T/C: 56.4%
Second compound 0.316 µM, first compound 0.03 µM
  viability, T/C: 45.3%
Second compound 0.316 µM, first compound 0.0949 µM
  viability, T/C: 22.7%
Second compound 0.316 µM, first compound 0.3 µM
  viability, T/C: 19%
Second compound 0.316 µM, first compound 0.949 µM
  viability, T/C: 16.8%
Second compound 0.316 µM, first compound 3 µM
  viability, T/C: 12.7%
Second compound 1 µM, first compound 0.00949 µM
  viability, T/C: 44.3%
Second compound 1 µM, first compound 0.03 µM
  viability, T/C: 31.3%
Second compound 1 µM, first compound 0.0949 µM
  viability, T/C: 20.7%
Second compound 1 µM, first compound 0.3 µM
  viability, T/C: 17.4%
Second compound 1 µM, first compound 0.949 µM
  viability, T/C: 17.4%
Second compound 1 µM, first compound 3 µM
  viability, T/C: 12%
